# In the supplement of paper PMC10307832:
# Legend:
# Experiment in all cases: relative viability (nuclei count vs DMSO), 5 days (fraction); higher = more cells survive
# [1] = compound: CC[C@H](Nc1ncnc2[nH]cnc12)c1nc2cccc(F)c2c(=O)n1-c1ccccc1 [Idelalisib] + CCNC(=O)c1noc(-c2cc(C(C)C)c(O)cc2O)c1-c1ccc(CN2CCOCC2)cc1 [Luminespib] (partner 0.01 µM)
# Procedure, shortened: (§1)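 Each reported value is a median over duplicate plates. It expresses relative viability: treated-well nuclei count divided by vehicle-well nuclei count. Lung cancer cell lines in 1536-well plates were dosed by pin tool a day after seeding, alone with one drug or with a fixed anchor-drug dose plus five library-drug doses (not always all listed) in √10 steps, and nuclei were counted after 5 days.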
# [2] = compound: Nc1nc2[nH]cc(CCc3ccc(C(=O)N[C@@H](CCC(=O)O)C(=O)O)cc3)c2c(=O)[nH]1 [Pemetrexed] + Nc1ncn([C@H]2C[C@H](O)[C@@H](CO)O2)c(=O)n1 [Decitabine] (partner 2 µM)
# Procedure, shortened: as §1
# [3] = compound: CC[C@H](Nc1ncnc2[nH]cnc12)c1nc2cccc(F)c2c(=O)n1-c1ccccc1 [Idelalisib] + O=C(CCCCCCC(=O)Nc1ccccc1)NO [Vorinostat] (partner 1 µM)
# Procedure, shortened: as §1
# [4] = compound: Nc1nc2[nH]cc(CCc3ccc(C(=O)N[C@@H](CCC(=O)O)C(=O)O)cc3)c2c(=O)[nH]1 [Pemetrexed] + C[C@@H](Oc1cc(-c2cnn(C3CCNCC3)c2)cnc1N)c1c(Cl)ccc(F)c1Cl [Crizotinib] (partner 1 µM)
# Procedure, shortened: as §1
cell line,measurement,setting,value
UMC-11,relative viability,[1]; first compound 0.04 µM,0.902
same,relative viability,[1]; first compound 0.1265 µM,1.13
same,relative viability,[1]; first compound 0.4 µM,1.08
same,relative viability,[1]; first compound 1.265 µM,1.03
same,relative viability,[1]; first compound 4 µM,0.949
same,relative viability,[2]; first compound 0.002 µM,0.849
same,relative viability,[2]; first compound 0.006325 µM,0.63
same,relative viability,[2]; first compound 0.02 µM,0.595
same,relative viability,[2]; first compound 0.06325 µM,0.58
same,relative viability,[2]; first compound 0.2 µM,0.7
same,relative viability,[3]; first compound 0.04 µM,0.474
same,relative viability,[3]; first compound 0.1265 µM,0.392
same,relative viability,[3]; first compound 0.4 µM,0.363
same,relative viability,[3]; first compound 1.265 µM,0.437
same,relative viability,[3]; first compound 4 µM,0.358
same,relative viability,[4]; first compound 0.002 µM,0.603
same,relative viability,[4]; first compound 0.006325 µM,0.635
same,relative viability,[4]; first compound 0.02 µM,0.666
same,relative viability,[4]; first compound 0.06325 µM,0.715
same,relative viability,[4]; first compound 0.2 µM,0.566
